Experimental data published in patent US20150209379A1, “TREATMENT OF PROSTATE CANCER AND HEMATOLOGIC NEOPLASMS” (THOMAS JEFFERSON UNIVERSITY, priority 2012, published 2015).

How the values were obtained:
Stat5a/b [1] = experiment: Constitutive Stat5a/b phosphorylation in imatinib-sensitive KCL22S cells (Western blot); type: cell-based, human
Procedure: Exponentially growing KCL22S and KCL22R cells were treated with Compound 1 or Compound 2 at various concentrations for 3 h and 16 h (Compound 1) or 3 h, 6 h or 16 h (Compound 2) after which the cells were harvested. Cell pellets were solubilized in lysis buffer [10 mM Tris-HCl (pH 7.6), 5 mM EDTA, 50 mM sodium chloride, 30 mM sodium pyrophosphate, 50 mM sodium fluoride, 1 mM sodium orthovanadate, 1% Triton X-100, 1 mM phenylmethylsulfonyl fluoride, 5 μg/ml aprotinin, 1 μg/ml pepstatin A, and 2 μg/ml leupeptin], rotated end-over-end at 4° C. for 60 min, and insoluble material was pelleted at 12,000×g for 30 min at 4° C. The protein concentrations of clarified cell lysates were determined by simplified Bradford method (Bio-Rad Laboratories, Hercules, Calif.). Western blotting of the lysates was carried out using, as primary antibodies, the following antibodies at the following concentrations: anti-phosphotyrosine-Stat5a/b (Y694/Y699) mAb (1 μg/ml, Advantex BioReagents, Conroe, Tex.), anti-Stat5ab mAb (1:250; BD Biosciences, San Jose, Calif.) or anti-actin pAb (Sigma). Anti-actin was included as a control.
(§1) Exponentially growing K562 cells were treated with NBPP for 3 h or 6 h after which the cells were harvested. Exponentially growing K562 cells or imatinib-resistant K562 cells were treated with NBPP for 6 h or 16 h after which the cells were harvested. Cell pellets were solubilized in lysis buffer [10 mM Tris-HCl (pH 7.6), 5 mM EDTA, 50 mM sodium chloride, 30 mM sodium pyrophosphate, 50 mM sodium fluoride, 1 mM sodium orthovanadate, 1% Triton X-100, 1 mM phenylmethylsulfonyl fluoride, 5 μg/ml aprotinin, 1 μg/ml pepstatin A, and 2 μg/ml leupeptin], rotated end-over-end at 4° C. for 60 min, and insoluble material was pelleted at 12,000×g for 30 min at 4° C. The protein concentrations of clarified cell lysates were determined by simplified Bradford method (Bio-Rad Laboratories, Hercules, Calif.). […]

Stat5a/b [2] = experiment: Constitutive Stat5a/b phosphorylation in K562 cells (Western blot); type: cell-based, human
Procedure: Exponentially growing K562 cells were treated with 5 μM Compound 1, Compound 2 or control for 3 h after which the cells were harvested. Cell pellets were solubilized in lysis buffer [10 mM Tris-HCl (pH 7.6), 5 mM EDTA, 50 mM sodium chloride, 30 mM sodium pyrophosphate, 50 mM sodium fluoride, 1 mM sodium orthovanadate, 1% Triton X-100, 1 mM phenylmethylsulfonyl fluoride, 5 μg/mlaprotinin, 1 μg/ml pepstatin A, and 2 μg/ml leupeptin], rotated end-over-end at 4° C. for 60 min, and insoluble material was pelleted at 12,000×g for 30 min at 4° C. The protein concentrations of clarified cell lysates were determined by simplified Bradford method (Bio-Rad Laboratories, Hercules, Calif.). Western blotting of the lysates was carried out using, as primary antibodies, the following antibodies at the following concentrations: anti-phosphotyrosine-Stat5a/b (Y694/Y699) mAb (1 μg/ml, Advantex BioReagents, Conroe, Tex.) or anti-Stat5ab mAb (1:250; BD Biosciences, San Jose, Calif.), anti-human Abl mAb (Calbiochem).
as §1

Stat5b = molecular target: T1, Stat5b (Homo sapiens, UniProt P51692); experiment: Stat5b transcriptional activity, beta-casein promoter luciferase reporter gene assay in PC-3 cells; type: cell-based; details: varying concentration
T1 construct: expressed in transfected cells; host or cells: PC-3 human prostate cancer cells
T1 sequence (P51692 1-787): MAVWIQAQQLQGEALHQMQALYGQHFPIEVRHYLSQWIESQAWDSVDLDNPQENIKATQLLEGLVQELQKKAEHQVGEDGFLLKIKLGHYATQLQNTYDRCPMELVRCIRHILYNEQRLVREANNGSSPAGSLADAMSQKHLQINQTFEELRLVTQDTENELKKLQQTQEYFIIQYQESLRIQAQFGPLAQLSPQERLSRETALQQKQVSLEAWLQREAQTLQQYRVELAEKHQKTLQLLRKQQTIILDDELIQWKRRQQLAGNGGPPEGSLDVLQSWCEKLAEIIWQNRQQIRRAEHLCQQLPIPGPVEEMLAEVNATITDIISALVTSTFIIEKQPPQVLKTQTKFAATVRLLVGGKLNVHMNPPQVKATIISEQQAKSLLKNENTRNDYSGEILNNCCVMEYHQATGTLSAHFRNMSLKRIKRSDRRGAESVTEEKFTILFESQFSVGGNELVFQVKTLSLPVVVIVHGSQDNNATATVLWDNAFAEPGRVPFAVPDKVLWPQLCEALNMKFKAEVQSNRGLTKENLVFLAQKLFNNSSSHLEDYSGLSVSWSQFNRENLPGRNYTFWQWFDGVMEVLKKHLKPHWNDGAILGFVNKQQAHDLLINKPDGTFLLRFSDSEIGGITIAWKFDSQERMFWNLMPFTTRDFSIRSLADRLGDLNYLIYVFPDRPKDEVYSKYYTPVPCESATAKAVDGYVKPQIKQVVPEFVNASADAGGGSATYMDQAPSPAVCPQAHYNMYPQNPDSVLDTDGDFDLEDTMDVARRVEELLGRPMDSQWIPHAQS
Procedure: Cells of the human prostate cell line PC-3 were plated into 96-well plate at the density of 2×10^5 per well. After 24 hours of plating, cells were transiently co-transfected using FuGENE6 (Roche) with 0.25 μg of each of pStat5a or pStat5b, pPrlR (prolactin receptor) plasmids, 0.5 μg of pBeta-casein-luc and 0.025 μg of pRL-TK (Renilla luciferase) plasmids as an internal control. After another 24 hours of transfection, the cells were starved in serum-free medium for 8 hours, pretreated with N^6-benzyladenosine (“N6BA”), or the control compound C5, for 1 hour, and then stimulated with 10 nM human prolactin (hPrl) in the serum-free medium for additional 16 hours. The lysates were assayed for firefly and Renilla luciferase activities using the Dual-Luciferase reporter assay system (Promega). Three independent experiments were carried out in triplicate. The firefly luciferase activity was normalized to the Renilla luciferase activity of the same sample, and the mean was calculated from the parallels. From the mean values of each independent run, the overall mean and its standard deviation (S.D.) were calculated.

[3] = KCL22S, various concentrations, 3 h and 16 h (Compound 1) or 3 h, 6 h or 16 h (Compound 2)

OC[C@H]1O[C@@H](n2cnc3c(N4CCc5ccccc5C4)ncnc32)[C@H](O)[C@@H]1O [Compound 1, (2R,3R,4S,5R)-2-(6-(3,4-Dihydroisoquinolin-2(1H)-yl)-9H-purin-9-yl)-5-(hydroxymethyl)tetrahydrofuran-3,4-diol]
effect on phosphorylation of Stat5 (Stat5a/b [1]; [3]): block phosphorylation of Stat5
effect on phosphorylation of Stat5 (Stat5a/b [2]; K562, 5 μM, 3 h): block phosphorylation of Stat5
effect on transcriptional activity of Stat5b (Stat5b): inhibited Stat5a and Stat5b transcriptional activity in a concentration-dependent manner

OC[C@H]1O[C@@H](n2cnc3c(NNc4ccccc4)ncnc32)[C@H](O)[C@@H]1O [Compound 2, (2R,3S,4R,5R)-2-(hydroxymethyl)-5-(6-(2-phenylhydrazinyl)-9H-purin-9-yl)tetrahydrofuran-3,4-diol]
effect on phosphorylation of Stat5 (Stat5a/b [1]; [3]): block phosphorylation of Stat5
effect on phosphorylation of Stat5 (Stat5a/b [2]; K562, 5 μM, 3 h): block phosphorylation of Stat5
effect on transcriptional activity of Stat5b (Stat5b): inhibited Stat5a and Stat5b transcriptional activity in a concentration-dependent manner

OC[C@H]1O[C@@H](n2cnc3c(NCc4ccccc4)ncnc32)[C@H](O)[C@@H]1O [Compound N6BA, N^6-benzyladenosine]
effect on transcriptional activity of Stat5b (Stat5b): inhibited Stat5 transcriptional activity in a concentration-dependent manner

OC[C@H]1O[C@@H](n2ccc3c(NCc4ccccc4)ncnc32)[C@H](O)[C@@H]1O [NBPP, N-(phenylmethyl)-7-β-D-ribofuranosyl-7H-pyrrolo[2,3-d]pyrimidin-4-amine]
effect on phosphorylation of Stat5 (Stat5a/b [1]; KCL22S imatinib-sensitive, 6 h or 16 h): inhibits phosphorylation of Stat5
effect on phosphorylation of Stat5 (Stat5a/b [2]; K562, indicated concentrations, 3 or 6 hours): inhibited phosphorylation of Stat5
